Like-named read-outs stand apart in the source and are kept apart here.
Test system: FCC1/NH strain of P. falciparum
Assay: Malaria inhibition test
Type: cell-based
Protocol: FCC1/NH strain (from Hainan, P.R.C.) of P. falciparum was used. The strain of the parasite was cultured by culture media mainly composed of RPMI-1640(GBCO), HEPES (GBCO), NaHCO3, and AB type serum. In a given experiment, Petri dish cultures were diluted with culture medium containing an amount of noninfected type B human erythrocytes to obtain a culture with a final parasitemia of about 1%. The resulting culture was ready for addition to microtitration plates with 96 flat-bottom wells.
The final volume added to each of the 96-well microtitration plates was 200 μl, consisted of 20 μl of complete medium with or without the drug (arsenic trioxide) and 180 μl of the parasitized culture. The microtitration plates were incubated in 5% CO2 for an additional 48 hr, at 37 C. The suspensions were discarded and infection rate of RBC in each well was calculated by microscope examination after Giemsa staining. When drugs interfere, an inhibitory dose of 50% (IC50) and 90% (IC90) can be calculated. A series of experiments is shown below.
The malaria inhibition experiment was performed in 4 lanes for each arsenic trioxide dose, and the initial infectious rate is 1.8%. After 48 hours of incubation, 5000 RBCs in each well were checked by microscope.
Another malaria inhibition experiment was performed in 4 lanes for each arsenic trioxide dose, and the initial infectious rate is 1.5%. After 48 hours of incubation, 5000 RBCs in each well were checked by microscope.
The other malaria inhibition experiment was performed in 12 lanes for each arsenic trioxide dose, and the initial infectious rate is 1.1%. After 48 hours of incubation, 5000 RBCs in each well were checked by microscope.
The other malaria inhibition experiment was performed in 6 lanes for each arsenic trioxide dose, and the initial infectious rate is 1.1%. After 48 hours of incubation, 5000 RBCs in each well were checked by microscope.

[1] = 0.031 uM, exp. 5.2.2, initial infectious rate 1.5%, 4 lanes, 48 hours
[2] = 0.063 uM, exp. 5.2.2, initial infectious rate 1.5%, 4 lanes, 48 hours
[3] = 0.125 uM, exp. 5.2.2, initial infectious rate 1.5%, 4 lanes, 48 hours
[4] = 0.25 uM, exp. 5.2.1, initial infectious rate 1.8%, 4 lanes, 48 hours
[5] = 0.25 uM, exp. 5.2.2, initial infectious rate 1.5%, 4 lanes, 48 hours
[6] = 0.5 uM, exp. 5.2.1, initial infectious rate 1.8%, 4 lanes, 48 hours
[7] = 0.5 uM, exp. 5.2.2, initial infectious rate 1.5%, 4 lanes, 48 hours
[8] = 0.5 uM, exp. 5.2.3, initial infectious rate 1.1%, 12 lanes, 48 hours
[9] = 0.5 uM, exp. 5.2.4, initial infectious rate 1.1%, 6 lanes, 48 hours
[10] = 1.0 uM, exp. 5.2.1, initial infectious rate 1.8%, 4 lanes, 48 hours
[11] = 1.0 uM, exp. 5.2.2, initial infectious rate 1.5%, 4 lanes, 48 hours
[12] = 1.0 uM, exp. 5.2.3, initial infectious rate 1.1%, 12 lanes, 48 hours
[13] = 1.0 uM, exp. 5.2.4, initial infectious rate 1.1%, 6 lanes, 48 hours
[14] = 2.0 uM, exp. 5.2.1, initial infectious rate 1.8%, 4 lanes, 48 hours
[15] = 2.0 uM, exp. 5.2.2, initial infectious rate 1.5%, 4 lanes, 48 hours
[16] = 2.0 uM, exp. 5.2.3, initial infectious rate 1.1%, 12 lanes, 48 hours
[17] = 2.0 uM, exp. 5.2.4, initial infectious rate 1.1%, 6 lanes, 48 hours
[18] = 4.0 uM, exp. 5.2.1, initial infectious rate 1.8%, 4 lanes, 48 hours
[19] = 4.0 uM, exp. 5.2.2, initial infectious rate 1.5%, 4 lanes, 48 hours
[20] = 4.0 uM, exp. 5.2.3, initial infectious rate 1.1%, 12 lanes, 48 hours
[21] = 4.0 uM, exp. 5.2.4, initial infectious rate 1.1%, 6 lanes, 48 hours
[22] = 8.0 uM, exp. 5.2.1, initial infectious rate 1.8%, 4 lanes, 48 hours
[23] = 8.0 uM, exp. 5.2.2, initial infectious rate 1.5%, 4 lanes, 48 hours
[24] = 8.0 uM, exp. 5.2.3, initial infectious rate 1.1%, 12 lanes, 48 hours
[25] = 8.0 uM, exp. 5.2.4, initial infectious rate 1.1%, 6 lanes, 48 hours

arsenic trioxide
Probability unit (Y) (0.031 uM, exp. 5.2.2): 4.1619 | Infection rate (%) [1]: 79.9% | Inhibition rate (%) [1]: 20.1% | Probability unit (Y) (0.063 uM, exp. 5.2.2): 4.3659 | Infection rate (%) [2]: 73.7% | Inhibition rate (%) [2]: 26.3% | Probability unit (Y) (0.125 uM, exp. 5.2.2): 4.5239 | Infection rate (%) [3]: 68.3% | Inhibition rate (%) [3]: 31.7% | Probability unit (Y) (0.25 uM, exp. 5.2.1): 5.1942 | Infection rate (%) [4]: 42.3% | Inhibition rate (%) [4]: 57.7% | Probability unit (Y) (0.25 uM, exp. 5.2.2): 4.8743 | Infection rate (%) [5]: 54.9% | Inhibition rate (%) [5]: 45.1% | Probability unit (Y) (0.5 uM, exp. 5.2.1): 5.6903 | Infection rate (%) [6]: 24.5% | Inhibition rate (%) [6]: 75.5% | Probability unit (Y) (0.5 uM, exp. 5.2.2): 5.1408 | Infection rate (%) [7]: 44.4% | Inhibition rate (%) [7]: 55.6% | Probability unit (Y) (0.5 uM, exp. 5.2.3): 5.6008 | Infection rate (%) [8]: 27.4% | Inhibition rate (%) [8]: 72.6% | Probability unit (Y) (0.5 uM, exp. 5.2.4): 5.6903 | Infection rate (%) [9]: 24.5% | Inhibition rate (%) [9]: 75.5% | Probability unit (Y) (1.0 uM, exp. 5.2.1): 5.8596 | Infection rate (%) [10]: 19.5% | Inhibition rate (%) [10]: 80.5% | Probability unit (Y) (1.0 uM, exp. 5.2.2): 5.9192 | Infection rate (%) [11]: 17.9% | Inhibition rate (%) [11]: 82.1% | Probability unit (Y) (1.0 uM, exp. 5.2.3): 5.1311 | Infection rate (%) [12]: 12.9% | Inhibition rate (%) [12]: 87.1% | Probability unit (Y) (1.0 uM, exp. 5.2.4): 6.0027 | Infection rate (%) [13]: 15.7% | Inhibition rate (%) [13]: 84.3% | Probability unit (Y) (2.0 uM, exp. 5.2.1): 6.0939 | Infection rate (%) [14]: 13.7% | Inhibition rate (%) [14]: 86.3% | Probability unit (Y) (2.0 uM, exp. 5.2.2): 6.1311 | Infection rate (%) [15]: 12.9% | Inhibition rate (%) [15]: 87.1% | Probability unit (Y) (2.0 uM, exp. 5.2.3): 6.3722 | Infection rate (%) [16]: 8.5% | Inhibition rate (%) [16]: 91.5% | Probability unit (Y) (2.0 uM, exp. 5.2.4): 6.3408 | Infection rate (%) [17]: 9.0% | Inhibition rate (%) [17]: 91.0% | Probability unit (Y) (4.0 uM, exp. 5.2.1): 6.3225 | Infection rate (%) [18]: 9.3% | Inhibition rate (%) [18]: 90.7% | Probability unit (Y) (4.0 uM, exp. 5.2.2): 6.2160 | Infection rate (%) [19]: 11.2% | Inhibition rate (%) [19]: 88.8% | Probability unit (Y) (4.0 uM, exp. 5.2.3): 6.7866 | Infection rate (%) [20]: 3.6% | Inhibition rate (%) [20]: 96.3% | Probability unit (Y) (4.0 uM, exp. 5.2.4): 6.7507 | Infection rate (%) [21]: 4.0% | Inhibition rate (%) [21]: 96.0% | Probability unit (Y) (8.0 uM, exp. 5.2.1): 6.4909 | Infection rate (%) [22]: 6.8% | Inhibition rate (%) [22]: 93.2% | Probability unit (Y) (8.0 uM, exp. 5.2.2): 6.6352 | Infection rate (%) [23]: 5.1% | Inhibition rate (%) [23]: 94.9% | Probability unit (Y) (8.0 uM, exp. 5.2.3): 7.0537 | Infection rate (%) [24]: 2.0% | Inhibition rate (%) [24]: 98.0% | Probability unit (Y) (8.0 uM, exp. 5.2.4): 7.0749 | Infection rate (%) [25]: 1.9% | Inhibition rate (%) [25]: 98.1% | IC50 (exp. 5.2.1, initial infectious rate 1.8%, 48 hours, read-out: IC50): 100 nM | IC90 (exp. 5.2.1, initial infectious rate 1.8%, 48 hours, read-out: IC90): 3680 nM | IC50 (exp. 5.2.1, 95% confidence limit 11.43˜34.2 ng/ml): 19.78 ng/mL | IC90 (exp. 5.2.1, 95% confidence limit 420.84˜1259.53 ng/ml): 728.05 ng/mL | IC50 (exp. 5.2.2, initial infectious rate 1.5%, 48 hours, read-out: IC50): 250 nM | IC90 (exp. 5.2.2, initial infectious rate 1.5%, 48 hours, read-out: IC90): 3730 nM | IC50 (exp. 5.2.2, 95% confidence limit 28.00˜86.73 ng/ml): 49.28 ng/mL | IC90 (exp. 5.2.2, 95% confidence limit 419.28˜1298.77 ng/ml): 737.94 ng/mL | IC50 (exp. 5.2.3, initial infectious rate 1.1%, 12 lanes, 48 hours, read-out: IC50): 130 nM | IC90 (exp. 5.2.3, initial infectious rate 1.1%, 12 lanes, 48 hours, read-out: IC90): 960 nM | IC50 (exp. 5.2.3, 95% confidence limit 18.91˜34.9 ng/ml): 25.72 ng/mL | IC90 (exp. 5.2.3, 95% confidence limit 139.65˜258.3 ng/ml): 189.93 ng/mL | IC90 (exp. 5.2.4, initial infectious rate 1.1%, 6 lanes, 48 hours, read-out: IC90): 2090 nM | IC50 (exp. 5.2.4, 95% confidence limit 40.32˜99.4 ng/ml): 63.31 ng/mL | IC90 (exp. 5.2.4, 95% confidence limit printed 263.06˜258.30 ng/ml): 413.48 ng/mL

Reference: US20060292243A1, “Arsenic compounds for the treatment of the arsenic-sensitive blast-cell related diseases” (priority 2005, published 2006)
